# Tested on: retinal ganglion cells in co-cultures with glial cells
# Test: TUNEL apoptosis of retinal ganglion cells in co-cultures with glial cells under stress conditions
# Type: cell-based, rat
# Settings: for decrease of rate of positive TUNEL: antibody 10 ug/ml, 1400W 2.5 uM
# Method: Retinal ganglion cell cultures. Primary cultures of retinal ganglion cells were derived from newborn rat retinas using a protocol similar to that recently described^70. All experiments were performed in accordance with the ARVO Statement for the Use of Animals in Ophthalmic and Vision Research and were approved by The Animal Studies Committee of Washington University. Five to seven days old Sprague-Dawley rats were anesthetized and their eyes were enucleated. The eyes were rinsed with CO2-independent culture medium (Gibco, Grand Island, N.Y.) and retinas were mechanically dissected under a microscope. To prepare retinal cell suspensions, tissues were dissociated in Eagles's minimum essential medium containing 20 U/ml papain, 1 mM L-cystein 0.5 mM EDTA and DNase (0.005%) (Worthington, Lakewood, N.J.) at 37° C. for 40 minutes. Then, retinas were rinsed in an inhibitor solution containing Eagle's minimum essential medium, ovomucoid (0.2%) (US Biological, Swampscott, Mass.), DNAase (0.04%) and bovine serum albumin (0.1%) (Sigma, St. Louis, Mo.). At the end of treatment period, tissues were triturated through a 1 ml plastic pipette to yield a suspension of single cells. The retinal cells were spun at 400 g for 10 minutes, resuspended in Eagle's minimum essential medium containing bovine serum albumin (0.05%) and incubated in a tissue culture incubator until their immediate use for subsequent separation by immunomagnetic selection^71,72.
# Immunomagnetic selection of the retinal ganglion cells was performed using magnetic, 2.8±0.2 um diameter, polystyrene beads coated with biotinylated rat monoclonal antibody against mouse IgG1 (Dynal, Oslo, Norway) in a two step process. In the first step, after washing with phosphate buffered saline solution containing 0.1% bovine serum albumin, 1×10^7 beads/ml were added to monoclonal antibody against macrophage surface antigens (100 ug/ml) (Sigma). After incubation at room temperature on a rotator for 30 minutes, beads were washed using a specially designed magnet (Dynal). […]
structure (smiles),measurement,setting,value
"CC(=N)NCc1cccc(CN)c1.Cl.Cl [1400W, N-(3-(aminomethyl)benzyl)acetamidine. dihydrochloride]",decrease of rate of positive TUNEL,co-cultures under elevated hydrostatic pressure,approximately 35%
same,decrease of rate of positive TUNEL,co-cultures under simulated ischemia,approximately 50%
same,attenuation of retinal ganglion cell apoptosis,"summary statement, simulated ischemia and elevated hydrostatic pressure, stressor not specified",~50%
